Consider 14 compounds from US10077261B2, “Imidazolin-5-one derivative useful as FASN inhibitors for the treatment of cancer” (Janssen Pharmaceutica NV, priority 2012, dated 2018).

In assay [1] the target is T1, hFASN enzyme (full length) (Homo sapiens, UniProt P49327).
T1 construct: 10 μL hFASN enzyme (full length, 300 ng, purified in house); made in house
The assay is described as follows: Fatty Acid Synthase (FASN) inhibition scintillation proximity assay. Format: biochemical. Conditions: for inhibition at 10 µM: read-out: Human FASN % inhibition @ 10 μM, 10 μM test compound; for IC50: read-out: Human FASN pIC50 (converted). The method in brief: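 Read-out relies on hydrophobic ³H-palmitate product, formed from ³H-acetyl-CoA and malonyl-CoA, binding streptavidin imaging beads, measured at 610±20 nm after at least 24 h. Full-length enzyme (300 ng) in phosphate buffer pH 7.5 with DTT; eight compound concentrations, 0.01–30 μM.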
(In general: SPA uses beads or plates that emit light when radiolabelled molecules are held near them.)

Assay [2] concerns A2780 ovarian cells. The experiment in a line: A2780 ovarian cell proliferation assay in lipid reduced medium, with palmitate (MTT). Conditions: Homo sapiens, A2780, 96 h; read-out: pIC50 A2780 Ovarian Cell, With Palmitate (converted). Format: cell-based. The method, boiled down:
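In this palmitate-supplemented format, compound dilutions (30 μM down to 0.01 μM) are added to cells in lipid-reduced serum with 25 μM palmitate, 0.2% fatty-acid-free BSA and 0.25% ethanol. After four days (96 h) MTT absorbance at 544 nm is recorded and fitted by minimum sum of squares.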

For assay [3], the system named is A2780 ovarian cells. The experiment in a line: A2780 ovarian cell proliferation assay in lipid reduced medium, without palmitate (MTT). Conditions: Homo sapiens, A2780, 96 h; read-out: pIC50 A2780 Ovarian Cell, Without Palmitate (converted). Format: cell-based.
The test system of assay [4] is LNCaP-Vancouver prostate cells. The experiment in a line: In vitro LNCaP Vancouver prostate cell proliferation assay in lipid reduced medium. Format: cell-based. Conditions: read-out: pIC50 LNCaP_Vancouver prostate cell (converted).
Assay [5] has as its system PC-3M-Luc-C6 prostate cells. The assay is described as follows: In vitro PC-3M-Luc-C6 prostate cell proliferation assay in lipid reduced medium. Format: cell-based. Conditions: 96 h, read-out: pIC50 PC-3M-Luc-C6 prostate cell (converted).
For assay [6], the target named is Fatty Acid Synthase Keto-reductase Domain (FASN KR) (Homo sapiens, UniProt P49327). The assay is described as follows: Fatty Acid Synthase keto-reductase domain (FASN KR) inhibition, NADPH oxidation at 340 nm.
Sequence of Fatty Acid Synthase Keto-reductase Domain (FASN KR) (P49327 whole entry, the tested form may be a part): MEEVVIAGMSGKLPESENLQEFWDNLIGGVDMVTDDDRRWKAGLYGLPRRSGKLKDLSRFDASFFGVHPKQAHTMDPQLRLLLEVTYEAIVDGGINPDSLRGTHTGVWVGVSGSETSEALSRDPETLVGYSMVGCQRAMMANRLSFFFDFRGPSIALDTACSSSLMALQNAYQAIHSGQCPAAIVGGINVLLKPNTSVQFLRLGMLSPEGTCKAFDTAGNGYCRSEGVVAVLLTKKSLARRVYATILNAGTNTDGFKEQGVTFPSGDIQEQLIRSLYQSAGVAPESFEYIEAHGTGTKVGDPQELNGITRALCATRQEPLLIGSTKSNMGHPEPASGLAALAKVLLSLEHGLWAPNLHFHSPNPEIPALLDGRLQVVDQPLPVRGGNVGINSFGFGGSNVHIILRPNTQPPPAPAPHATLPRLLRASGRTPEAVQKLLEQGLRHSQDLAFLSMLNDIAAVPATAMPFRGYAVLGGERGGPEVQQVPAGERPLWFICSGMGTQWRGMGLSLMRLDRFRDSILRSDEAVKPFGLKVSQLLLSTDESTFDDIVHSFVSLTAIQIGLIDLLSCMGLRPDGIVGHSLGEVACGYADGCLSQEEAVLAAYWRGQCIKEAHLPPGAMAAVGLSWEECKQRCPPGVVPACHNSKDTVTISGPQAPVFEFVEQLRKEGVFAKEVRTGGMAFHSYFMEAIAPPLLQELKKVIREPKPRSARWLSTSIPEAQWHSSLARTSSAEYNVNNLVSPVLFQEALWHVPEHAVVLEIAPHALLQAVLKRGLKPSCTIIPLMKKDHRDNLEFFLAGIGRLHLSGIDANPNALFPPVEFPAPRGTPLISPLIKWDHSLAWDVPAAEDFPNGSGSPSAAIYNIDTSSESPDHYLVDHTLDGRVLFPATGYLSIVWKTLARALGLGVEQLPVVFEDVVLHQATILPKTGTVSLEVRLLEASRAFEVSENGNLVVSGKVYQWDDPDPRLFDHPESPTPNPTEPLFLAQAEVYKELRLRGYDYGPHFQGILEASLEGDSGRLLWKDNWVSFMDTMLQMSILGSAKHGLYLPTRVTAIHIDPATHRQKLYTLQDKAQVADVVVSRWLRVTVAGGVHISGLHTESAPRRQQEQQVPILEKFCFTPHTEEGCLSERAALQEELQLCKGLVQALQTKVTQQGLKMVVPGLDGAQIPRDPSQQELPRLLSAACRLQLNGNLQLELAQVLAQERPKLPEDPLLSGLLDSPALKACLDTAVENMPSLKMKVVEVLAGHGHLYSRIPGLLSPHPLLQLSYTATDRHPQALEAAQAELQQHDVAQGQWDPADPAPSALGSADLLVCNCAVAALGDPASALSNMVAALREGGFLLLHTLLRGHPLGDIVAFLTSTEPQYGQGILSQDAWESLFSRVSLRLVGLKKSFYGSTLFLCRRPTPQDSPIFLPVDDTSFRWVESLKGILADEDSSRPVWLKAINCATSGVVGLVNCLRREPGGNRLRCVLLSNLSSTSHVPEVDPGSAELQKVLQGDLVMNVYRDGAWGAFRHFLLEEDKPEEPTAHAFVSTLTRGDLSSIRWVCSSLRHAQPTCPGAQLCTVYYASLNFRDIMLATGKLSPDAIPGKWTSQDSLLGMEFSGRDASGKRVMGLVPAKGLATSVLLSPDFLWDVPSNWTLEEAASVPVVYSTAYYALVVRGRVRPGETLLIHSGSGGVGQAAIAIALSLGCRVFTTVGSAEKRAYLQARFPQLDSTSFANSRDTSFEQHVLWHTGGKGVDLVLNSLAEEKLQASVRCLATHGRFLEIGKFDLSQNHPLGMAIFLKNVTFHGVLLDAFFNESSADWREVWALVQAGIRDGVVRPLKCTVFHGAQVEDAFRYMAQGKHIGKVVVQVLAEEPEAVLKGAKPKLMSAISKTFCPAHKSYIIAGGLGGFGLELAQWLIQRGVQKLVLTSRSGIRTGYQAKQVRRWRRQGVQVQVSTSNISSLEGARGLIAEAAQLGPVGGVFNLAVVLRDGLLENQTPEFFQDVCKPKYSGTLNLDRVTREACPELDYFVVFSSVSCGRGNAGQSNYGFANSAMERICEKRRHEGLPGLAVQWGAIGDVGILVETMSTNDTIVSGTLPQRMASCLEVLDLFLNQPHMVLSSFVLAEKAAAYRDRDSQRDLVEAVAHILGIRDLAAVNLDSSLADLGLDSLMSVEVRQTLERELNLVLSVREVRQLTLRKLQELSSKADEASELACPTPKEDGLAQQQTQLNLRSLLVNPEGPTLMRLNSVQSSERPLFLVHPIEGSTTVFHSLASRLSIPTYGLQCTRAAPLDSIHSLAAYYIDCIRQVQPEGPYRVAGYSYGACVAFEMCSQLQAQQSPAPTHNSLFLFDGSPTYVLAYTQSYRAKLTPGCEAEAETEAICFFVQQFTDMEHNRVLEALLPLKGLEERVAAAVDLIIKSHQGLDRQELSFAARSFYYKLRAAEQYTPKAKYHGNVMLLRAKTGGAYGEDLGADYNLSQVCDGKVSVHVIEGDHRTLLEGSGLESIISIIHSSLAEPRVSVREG
Description: After 20 minutes incubation at room temperature the plate was measured again (T2).
The decrease in absorbance was calculated as (Absorbance before incubation T1)−(Absorbance following incubation T2).
A plot of Controlmin versus test compound concentration was fitted to a 4-parameter logistic curve using a non-linear least squares regression method.

T1 sequence (P49327 whole entry): as the sequence (P49327 whole entry, the tested form may be a part) above

By inhibition is commonly meant the relative decrease from the control value, in per cent. As to `COCc1nn(C)c2cc(-c3ccc(C4=NC5(CC5)C(=O)N4C[C@@H]4CCN(C(=O)C5CC5)C4)cc3)ccc12` [compound 484, 6-{[(3R)-1-(Cyclopropylcarbonyl)pyrrolidin-3-yl]methyl}-5-{4-[3-(methoxymethyl)-1-methyl-1H-indazol-6-yl]phenyl}-4,6-diazaspiro[2.4]hept-4-en-7-one], the inhibition at 10 µM in assay [1] came to 99%. Besides, the IC50 in assay [1] is 151 nM; with A2780 ovarian cells [2] it was over 10 µM; with A2780 ovarian cells [3], 95.5 nM; in assay [4], 550 nM; in assay [5] it was 151 nM; in assay [6], 257 nM.

As to `Cn1nc(CO)c2ccc(-c3ccc(C4=NC5(CC5)C(=O)N4C[C@@H]4CCN(C(=O)C5CC5)C4)cc3)cc21` [compound 485, 6-{[(3R)-1-(Cyclopropylcarbonyl)pyrrolidin-3-yl]methyl}-5-{4-[3-(hydroxymethyl)-1-methyl-1H-indazol-6-yl]phenyl}-4,6-diazaspiro[2.4]hept-4-en-7-one], in assay [1], the inhibition at 10 µM worked out at 96%. The IC50 in assay [1] is 162 nM; in the assay with A2780 ovarian cells [2], over 10 µM; in the assay with A2780 ovarian cells [3], about 123 nM; in assay [4] it was 631 nM; in assay [5], 214 nM; in assay [6] it was 302 nM.

As for `COCc1c2ccc(-c3ccc(C4=NC5(CC5)C(=O)N4C[C@@H]4CCN(C(=O)C5CC5)C4)cc3)cc2nn1C` [compound 486, 6-{[(3R)-1-(Cyclopropylcarbonyl)pyrrolidin-3-yl]methyl}-5-{4-[3-(methoxymethyl)-2-methyl-2H-indazol-6-yl]phenyl}-4,6-diazaspiro[2.4]hept-4-en-7-one], in assay [1], the inhibition at 10 µM is 81%. For the same compound, the IC50 in assay [1] was 1510 nM; in the assay with A2780 ovarian cells [2], over 10 µM; with A2780 ovarian cells [3], about 2190 nM; in assay [4], 4470 nM; in assay [5], about 2820 nM; in assay [6], 2630 nM.

Turning to `Cc1cc(-c2ccc3c(cnn3C)c2)ccc1C1=NC2(CC2)C(=O)N1CC1CN(C(=O)N(C)C)C1` [compound 488, N,N-Dimethyl-3-({5-[2-methyl-4-(1-methyl-1H-indazol-5-yl)phenyl]-7-oxo-4,6-diazaspiro[2.4]hept-4-en-6-yl}methyl)azetidine-1-carboxamide], the inhibition at 10 µM in assay [1] came out at 88%. The IC50 in assay [1] was 214 nM; in the assay with A2780 ovarian cells [2], over 10 µM; in the assay with A2780 ovarian cells [3], 302 nM; in assay [4] it was 1550 nM; in assay [5], 575 nM; in assay [6], 501 nM.

`Cn1nc(C#N)c2ccc(-c3ccc(C4=NC5(CC5)C(=O)N4C[C@@H]4CCN(C(=O)C5CC5)C4)cc3)cc21` [compound 493, 6-[4-(6-{[(3R)-1-(Cyclopropylcarbonyl)pyrrolidin-3-yl]methyl}-7-oxo-4,6-diazaspiro[2.4]hept-4-en-5-yl)phenyl]-1-methyl-1H-indazole-3-carbonitrile]: in assay [1], the inhibition at 10 µM was 98%. Also, the IC50 in assay [1] is 166 nM; in the assay on A2780 ovarian cells [2], over 10 µM; in the assay with A2780 ovarian cells [3], about 209 nM; in assay [4], 1260 nM; in assay [5], 158 nM; in assay [6], 427 nM.

On to `NC(=O)c1cccc(-c2ccc(C3=NC4(CC4)C(=O)N3C[C@@H]3CCN(C(=O)C4CC4)C3)cc2)c1` [compound 494, 4′-(6-{[(3R)-1-(Cyclopropylcarbonyl)pyrrolidin-3-yl]methyl}-7-oxo-4,6-diazaspiro[2.4]hept-4-en-5-yl)biphenyl-3-carboxamide], for which, in assay [1], the inhibition at 10 µM stood at 95%. Further, the IC50 in assay [1] is 219 nM; in the assay with A2780 ovarian cells [2], over 10 µM; with A2780 ovarian cells [3], 692 nM; in assay [4] it was 4680 nM; in assay [5], 891 nM; in assay [6] it was 661 nM.

Turning to `Cc1cc(-c2ccc3c(cnn3C)c2)ccc1C1=NC2(CC2)C(=O)N1CC1CN(C(=O)C(C)(C)O)C1` [compound 495, 6-{[1-(2-Hydroxy-2-methylpropanoyl)azetidin-3-yl]methyl}-5-[2-methyl-4-(1-methyl-1H-indazol-5-yl)phenyl]-4,6-diazaspiro[2.4]hept-4-en-7-one], the inhibition at 10 µM in assay [1] was determined as 95%. Besides, the IC50 in assay [1] is 257 nM; with A2780 ovarian cells [2], over 10 µM; in the assay on A2780 ovarian cells [3] it was 275 nM; in assay [4], about 3240 nM; in assay [5], about 589 nM; in assay [6], 724 nM.

With `Cc1cc(-c2ccc3c(cnn3C)c2)ccc1C1=NC2(CC2)C(=O)N1CC1CN(C(=O)C2(C)COC2)C1` [compound 496, 5-[2-Methyl-4-(1-methyl-1H-indazol-5-yl)phenyl]-6-({1-[(3-methyloxetan-3-yl)carbonyl]azetidin-3-yl}methyl)-4,6-diazaspiro[2.4]hept-4-en-7-one], in assay [1], the inhibition at 10 µM worked out at 94%. For the same compound, the IC50 was 302 nM in assay [1]; over 10 µM in the assay on A2780 ovarian cells [2]; 209 nM in the assay on A2780 ovarian cells [3]; 1740 nM in assay [4]; about 355 nM in assay [5]; 575 nM in assay [6].

Consider `Cc1cc(-c2ccc(C3=NC4(CC4)C(=O)N3CC3CN(C(=O)C4CC4)C3)c(F)c2)cc2cnn(C)c12` [compound 520, 6-{[1-(Cyclopropylcarbonyl)azetidin-3-yl]methyl}-5-[4-(1,7-dimethyl-1H-indazol-5-yl)-2-fluorophenyl]-4,6-diazaspiro[2.4]hept-4-en-7-one], for which the inhibition at 10 µM in assay [1] came to 97%. The IC50 is 427 nM in assay [1]; over 10 µM in the assay on A2780 ovarian cells [2]; 389 nM in the assay with A2780 ovarian cells [3]; 2570 nM in assay [4]; 501 nM in assay [5]; 631 nM in assay [6].

`CCn1ncc2cc(-c3ccc(C4=NC5(CC5)C(=O)N4CC4CN(C(=O)C5CC5)C4)c(F)c3)ccc21` [compound 521, 6-{[1-(Cyclopropylcarbonyl)azetidin-3-yl]methyl}-5-[4-(1-ethyl-1H-indazol-5-yl)-2-fluorophenyl]-4,6-diazaspiro[2.4]hept-4-en-7-one]: the inhibition at 10 µM in assay [1] was 94%. Further, the IC50 in assay [1] was 513 nM; with A2780 ovarian cells [2], over 10 µM; in the assay on A2780 ovarian cells [3], about 339 nM; in assay [4], 1910 nM; in assay [5], 603 nM; in assay [6], 676 nM.

Consider `O=C(C1CC1)N1CC(CN2C(=O)C3(CC3)N=C2c2ccc(-c3ccc4c(cnn4CC4CC4)c3)cc2F)C1` [compound 523, 6-{[1-(Cyclopropylcarbonyl)azetidin-3-yl]methyl}-5-{4-[1-(cyclopropylmethyl)-1H-indazol-5-yl]-2-fluorophenyl}-4,6-diazaspiro[2.4]hept-4-en-7-one], for which the inhibition at 10 µM in assay [1] came out at 92%. The IC50 in assay [1] is 513 nM; with A2780 ovarian cells [2], over 10 µM; with A2780 ovarian cells [3], 676 nM; in assay [4] it was 3240 nM; in assay [5], 1170 nM; in assay [6] it was 1480 nM.

On to `O=C(C1CC1)N1CC(CN2C(=O)C3(CC3)N=C2c2ccc(-c3ccc(-n4ccnc4)nc3)cc2F)C1` [compound 526, 6-{[1-(Cyclopropylcarbonyl)azetidin-3-yl]methyl}-5-{2-fluoro-4-[6-(1H-imidazol-1-yl)pyridin-3-yl]phenyl}-4,6-diazaspiro[2.4]hept-4-en-7-one], for which the inhibition at 10 µM in assay [1] amounted to 93%. Further, the IC50 in assay [1] is 912 nM; in the assay with A2780 ovarian cells [2], over 10 µM; in the assay with A2780 ovarian cells [3] it was about 1020 nM; in assay [4], 5890 nM; in assay [5], 1480 nM; in assay [6], 2190 nM.

For the compound `O=C(C1CC1)N1CC[C@@H](CN2C(=O)C3(CC3)N=C2c2ccc(-c3n[nH]c4ccccc34)cc2F)C1` [compound 529, 6-{[(3R)-1-(Cyclopropylcarbonyl)pyrrolidin-3-yl]methyl}-5-[2-fluoro-4-(1H-indazol-3-yl)phenyl]-4,6-diazaspiro[2.4]hept-4-en-7-one], the inhibition at 10 µM in assay [1] was 96%. The IC50 in assay [1] is 102 nM; in the assay on A2780 ovarian cells [2] it was over 10 µM; in the assay on A2780 ovarian cells [3], about 83.2 nM; in assay [4] it was 724 nM; in assay [5], about 83.2 nM; in assay [6] it was 155 nM.

Take `O=C(C1CC1)N1CC(CN2C(=O)C3(CC3)N=C2c2ccc(-c3cc4ccccc4cn3)cc2)C1` [compound 531, 6-{[1-(Cyclopropylcarbonyl)azetidin-3-yl]methyl}-5-(4-isoquinolin-3-ylphenyl)-4,6-diazaspiro[2.4]hept-4-en-7-one]: the inhibition at 10 µM in assay [1] is 96%. Also, the IC50 was 170 nM in assay [1]; over 10 µM with A2780 ovarian cells [2]; 148 nM with A2780 ovarian cells [3]; 1350 nM in assay [4]; 302 nM in assay [5]; 537 nM in assay [6].
